Where a name gives a salt, the structure may show the parent alone.
Legend:
[1] = Equilibration of the anhydrous mesylate in an 81% RH environment; assay type: physicochemical; conditions: equilibrated in an 81% RH environment
Source text: FIG. 1 depicts the X-ray powder diffraction spectrum of the mesylate trihydrate (taken on a Siemens D 5000 diffractometer after equilibration of the anhydrous mesylate at 81% relative humidity ("RH")), expressed as intensity (CPS) versus diffraction angle (two-theta degrees).

[2] = Hygroscopicity at ambient conditions of the anhydrous mesylate salt (Table 3); assay type: physicochemical
Source text: HYGROSCOPICITY AT AMBIENT CONDITIONS OF THE ANHYDROUS MESYLATE SALT

[3] = Hygroscopicity at 0%, 52% and 98% controlled relative humidities and under ambient laboratory conditions; assay type: physicochemical
[4] = tested on: NMDA (N-methyl-D-aspartic acid) receptor; test: NMDA receptor antagonist activity; conditions: in words
hippocampal cells = test: Neuroprotective activity: glutamate toxicity in cultured fetal rat hippocampal cells (LDH release); assay type: cell-based; conditions: in words
Description: The preferred procedure for evaluating the neuroprotective activity of this compound is that described by Ismail A. Shalaby, et al., in J. Pharm. and Experimental Therapeutics, 260, 925 (1992). This article is incorporated herein by reference in its entirety and described below.
Cell culture. […]
Glutamate toxicity. The cultures are assessed for glutamate toxicity 2 to 3 weeks from initial plating. […]
Cell viability is routinely assessed 20 to 24 hours after the excitotoxin exposure by measuring the activity of the cytosolic enzyme LDH. LDH activity is determined from the culture medium of each of the 96 wells of the microtiter plates. […] The 340 nm absorbance of the total reaction mixture for each of the 96 wells is monitored every 5 sec for 2 min by an automated spectrophotometric microtiter plate reader (Molecular Devices; Menlo Park, Calif.). The rate of absorbance is automatically calculated using an IBM SOFTmax program (version 1.01; Molecular Devices) and is used as the index of LDH activity.
Morphological assessment of neuronal viability is determined using phrase contrast microscopy. […] Quantitatively, both culture platings are equally sensitive to glutamate toxicity, and display 2- to 3-fold increases in LDH activity 24 hours after exposure to 0.1 to 1.0 mM glutamate. […]

[5] = Stability of crystalline form and shelf life compared to the anhydrous mesylate; assay type: physicochemical; conditions: compared with the corresponding anhydrous salt
[6] = Bulk stability samples stored in polyethylene bags; assay type: physicochemical; conditions: 40° C./30% RH, 9 months
Description: Weight loss was also observed in bulk stability samples stored in polyethylene bags at 40° C./30% RH (>10% of weight was lost in 9 months).

SMILES: CC(C(O)c1ccc(O)cc1)N1CCC(O)(c2ccccc2)CC1 (centres unmarked) [anhydrous mesylate]
- conversion to the mesylate salt trihydrate [1]: will convert to the mesylate salt trihydrate
- % Difference from Initial ([2]; 1 hours since initial): 0.06%
- % Difference from Prev. Weighing ([2]; 1 hours since initial): 0.06%
- Weight of Sample ([2]; 1 hours since initial): 0.4977 g
- % Difference from Initial ([2]; 3.5 hours since initial): 0.06%
- % Difference from Prev. Weighing ([2]; 3.5 hours since initial): 0.00%
- Weight of Sample ([2]; 3.5 hours since initial): 0.4977 g
- % Difference from Initial ([2]; 22 hours since initial): 0.32%
- % Difference from Prev. Weighing ([2]; 22 hours since initial): 0.26%
- Weight of Sample ([2]; 22 hours since initial): 0.4990 g
- % Difference from Initial ([2]; 30.5 hours since initial): 0.56%
- % Difference from Prev. Weighing ([2]; 30.5 hours since initial): 0.24%
- Weight of Sample ([2]; 30.5 hours since initial): 0.5002 g
- % Difference from Initial ([2]; 45.5 hours since initial): 1.93%
- % Difference from Prev. Weighing ([2]; 45.5 hours since initial): 1.36%
- Weight of Sample ([2]; 45.5 hours since initial): 0.5070 g
- % Difference from Initial ([2]; 98 hours since initial): 2.57%
- % Difference from Prev. Weighing ([2]; 98 hours since initial): 0.63%
- Weight of Sample ([2]; 98 hours since initial): 0.5102 g
- % Difference from Initial ([2]; 170 hours since initial): 3.94%
- % Difference from Prev. Weighing ([2]; 170 hours since initial): 1.33%
- Weight of Sample ([2]; 170 hours since initial): 0.5170 g
- % Difference from Initial ([2]; 194 hours since initial): 3.94%
- % Difference from Prev. Weighing ([2]; 194 hours since initial): 0.00%
- Weight of Sample ([2]; 194 hours since initial): 0.5170 g
- % Difference from Initial ([2]; 215 hours since initial): 3.96%
- % Difference from Prev. Weighing ([2]; 215 hours since initial): 0.02%
- Weight of Sample ([2]; 215 hours since initial): 0.5171 g
- % Difference from Initial ([2]; 246 hours since initial): 4.22%
- % Difference from Prev. Weighing ([2]; 246 hours since initial): 0.25%
- Weight of Sample ([2]; 246 hours since initial): 0.5184 g
- % Difference from Initial ([2]; 382 hours since initial): 4.60%
- % Difference from Prev. Weighing ([2]; 382 hours since initial): 0.37%
- Weight of Sample ([2]; 382 hours since initial): 0.5203 g
- % Difference from Initial ([2]; 408 hours since initial): 4.40%
- % Difference from Prev. Weighing ([2]; 408 hours since initial): -0.19%
- Weight of Sample ([2]; 408 hours since initial): 0.5193 g
- % Difference from Initial ([2]; 533 hours since initial): 4.40%
- % Difference from Prev. Weighing ([2]; 533 hours since initial): 0.00%
- Weight of Sample ([2]; 533 hours since initial): 0.5193 g
- Weight of Sample ([2]; initial): 0.4974 g
- weight gain at ambient conditions ([2]; summary in words): substantial weight gain
- re-equilibration to the hydrated form ([3]; anhydrous form exposed to higher humidities): quickly equilibrated to the hydrated form

SMILES: C[C@@H]([C@@H](O)c1ccc(O)cc1)N1CCC(O)(c2ccccc2)CC1 [free base, (1S,2S)-1-(4-hydroxyphenyl)-2-(4-hydroxy-4-phenylpiperidin-1-yl)-1-propanol]
- activity as NMDA receptor antagonist [4]: exhibit activity as NMDA (N-methyl-D-aspartic acid) receptor antagonists
- neuroprotective activity (hippocampal cells): possesses selective neuroprotective activity

SMILES: CC(C(O)c1ccc(O)cc1)N1CCC(O)(c2ccccc2)CC1 [mesylate salt trihydrate, (1S,2S)-1-(4-hydroxyphenyl)-2-(4-hydroxy-4-phenylpiperidin-1-yl)-1-propanol methanesulfonate trihydrate]
- activity as NMDA receptor antagonist [4]: exhibit activity as NMDA (N-methyl-D-aspartic acid) receptor antagonists
- breakdown of the crystal structure [5]: less subject to breakdown of the crystal structure
- shelf life [5]: substantially longer shelf life
- stability of crystalline form [5]: more stable crystalline form than the corresponding anhydrous salt
- neuroprotective activity (hippocampal cells): possesses selective neuroprotective activity
- loss of waters of hydration ([3]; 0% RH): Loss of waters of hydration is observed
- weight change ([3]; 52% RH): No weight change
- weight change ([3]; 98% RH): No weight change
- weight change ([3]; ambient laboratory conditions (24-27° C., 31-64% RH's)): No weight change
- reversibility of weight loss observed at 0% RH ([3]; exposure to higher humidities after 0% RH): reversible
- weight lost [6]: > 10%
